Each structure is given as a SMILES string. Several values for one entry are separate records, joined by “and”; a condition that tells them apart may be missing. Equal entries are not always repeated. Toxic doses and inconclusive results are not listed.

This is an account of results in PubChem BioAssay AID248 (DTP/NCI, 2004).

In this assay the test system is L1210 leukemia ip in BDF1 mice, survival T/C. Briefly: NCI In Vivo Anticancer Drug Screen. Data for tumor model L1210 Leukemia (intraperitoneal) in B6D2F1 (BDF1) mice. The following applies: endpoint: mean survival time, higher = longer survival. Summed up:
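Tumor cells were implanted, animals were treated, and survival was followed. The result divides the treated measurement by the vehicle-control measurement.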

Setting [1] is: dose: 200.0 mg/kg/injection, schedule: Q01DX009 (ip), vehicle: Klucel (hydroxypropylcellulose) (HPC).
The mark [2] stands for this setting: dose: 400.0 mg/kg/injection, schedule: Q01DX009 (ip), vehicle: Klucel (hydroxypropylcellulose) (HPC).
[3] abbreviates: dose: 100.0 mg/kg/injection, schedule: Q01DX009 (ip), vehicle: saline with Tween-80.
[4] abbreviates: dose: 100.0 mg/kg/injection, schedule: Q04DX003 (ip), vehicle: saline with Tween-80.
The mark [5] stands for this setting: dose: 200.0 mg/kg/injection, schedule: Q01DX009 (ip), vehicle: saline with Tween-80.
The mark [6] stands for this setting: dose: 200.0 mg/kg/injection, schedule: Q04DX003 (ip), vehicle: saline with Tween-80.
[7] abbreviates: dose: 400.0 mg/kg/injection, schedule: Q01DX009 (ip), vehicle: saline with Tween-80.
Where [8] appears, read: dose: 400.0 mg/kg/injection, schedule: Q04DX003 (ip), vehicle: saline with Tween-80.
[9] abbreviates: dose: 100.0 mg/kg/injection, schedule: Q04DX003 (ip), vehicle: Klucel (hydroxypropylcellulose) (HPC).
Setting [10] is: dose: 50.0 mg/kg/injection, schedule: Q01DX009 (ip), vehicle: saline with Tween-80.
[11] abbreviates: dose: 100.0 mg/kg/injection, schedule: Q01DX001 (ip), vehicle: carboxymethylcellulose (CMC).
[12] abbreviates: dose: 200.0 mg/kg/injection, schedule: Q01DX001 (ip), vehicle: carboxymethylcellulose (CMC).
Where [13] appears, read: dose: 400.0 mg/kg/injection, schedule: Q01DX001 (ip), vehicle: carboxymethylcellulose (CMC).
The mark [14] stands for this setting: dose: 50.0 mg/kg/injection, schedule: Q01DX001 (ip), vehicle: saline.
The mark [15] stands for this setting: dose: 100.0 mg/kg/injection, schedule: Q01DX001 (ip), vehicle: saline.
Setting [16] is: dose: 200.0 mg/kg/injection, schedule: Q01DX001 (ip), vehicle: saline.
Setting [17] is: dose: 400.0 mg/kg/injection, schedule: Q01DX001 (ip), vehicle: saline.

For `CCCCCCCCCCCCSC(=O)Nc1ccc([N+](=O)[O-])cc1Cl`, the T/C is 107 % of control under setting [1] and 102 % of control under setting [2].
For `Cc1cccc(OC(F)(F)C(F)Cl)c1` (stereo unspecified), the T/C under setting [3] is 94 % of control; the T/C under setting [4] was 93 % of control; the T/C under setting [5] was 92 % of control; the T/C under setting [6] was 93 % of control; the T/C under setting [7] is 100 % of control; the T/C under setting [8] was 95 % of control.
On to `COC(=O)CCC(=O)Nc1ccccc1`, for which the T/C is, setting by setting: under setting [4], 101 % of control; under setting [6], 95 % of control; under setting [8], 95 % of control.
For the molecule `Cc1ccc(C(=O)Nc2ccc(OCCCc3c(N)nc(N)nc3N)cc2)cc1S(=O)(=O)F`, the T/C reads like this: (dose: 25.0 mg/kg/injection, schedule: Q04DX003 (ip), vehicle: Klucel (hydroxypropylcellulose) (HPC)) 103 % of control; (dose: 50.0 mg/kg/injection, schedule: Q04DX003 (ip), vehicle: Klucel (hydroxypropylcellulose) (HPC)) 97 % of control; under setting [9], 103 % of control.
Turning to `C/C=C/C(OC(C)=O)OC(C)=O`, the T/C was 101 % of control under setting [10], 101 % of control under setting [3] and 101 % of control under setting [5].
As for `CC(Cl)CN(Cc1c(O)ccc2ccccc12)CC(C)Cl` (stereo unspecified), the T/C runs as follows: under setting [11], 96 % of control; under setting [12], 107 % of control; under setting [13], 101 % of control.
Regarding `Cc1nc2c(c(=O)[nH]1)OCN(C)C2`, the T/C by setting is: under setting [14], 104 % of control; under setting [15], 101 % of control; under setting [16], 109 % of control; under setting [17], 122 % of control.
On to `Cc1ccc(C(C#N)c2ccc(N)cc2)cc1` (stereo unspecified), for which the T/C under setting [14] was 98 % of control, the T/C under setting [15] is 101 % of control and the T/C under setting [16] was 101 % of control.
As for `CC1NCc2c(N)ncnc21` (stereo unspecified), the T/C is, setting by setting: under setting [11], 106 % of control; under setting [12], 112 % of control; under setting [13], 98 % of control.
For the molecule `CCCCCCCC(=O)O[C@H]1[C@H]2[C@@H](CC1(C)C)C(=O)[C@]13O[C@H]1C(=O)[C@]1(CO1)[C@]23C`, the T/C reads like this: (dose: 5.0 mg/kg/injection, schedule: Q01DX009 (ip), vehicle: saline with Tween-80) 108 % of control; (dose: 10.0 mg/kg/injection, schedule: Q01DX009 (ip), vehicle: saline with Tween-80) 119 % of control; (dose: 10.0 mg/kg/injection, schedule: Q04DX003 (ip), vehicle: saline with Tween-80) 97 % of control; (dose: 20.0 mg/kg/injection, schedule: Q01DX009 (ip), vehicle: saline with Tween-80) 86 % of control; (dose: 20.0 mg/kg/injection, schedule: Q04DX003 (ip), vehicle: saline with Tween-80) 99 % of control.
In the case of `CCC[CH2][Sn]1([CH2]CCC)[S]CCOB(OCC[S][Sn]([CH2]CCC)([CH2]CCC)[S]CCOB2OCC[S][Sn]([CH2]CCC)([CH2]CCC)[S]CCO2)OCC[S]1`, the T/C runs as follows: (dose: 6.25 mg/kg/injection, schedule: Q01DX001 (ip), vehicle: Klucel (hydroxypropylcellulose) (HPC)) 100 % of control; (dose: 12.5 mg/kg/injection, schedule: Q01DX001 (ip), vehicle: Klucel (hydroxypropylcellulose) (HPC)) 89 % of control; (dose: 25.0 mg/kg/injection, schedule: Q01DX001 (ip), vehicle: Klucel (hydroxypropylcellulose) (HPC)) 112 % of control.
In the case of `CCCCC(C(=O)O)(c1ccccc1)c1ccccc1`, the T/C (dose: 75.0 mg/kg/injection, schedule: Q04DX002 (ip), vehicle: gum acacia) is 96 % of control and the T/C (dose: 150.0 mg/kg/injection, schedule: Q04DX002 (ip), vehicle: gum acacia) was 107 % of control.
As for `OC(c1ccccc1)C1(O)C2CCC1C2` (stereo unspecified), the T/C is 96 % of control (dose: 75.0 mg/kg/injection, schedule: Q04DX002 (ip), vehicle: Klucel (hydroxypropylcellulose) (HPC)); 104 % of control (dose: 150.0 mg/kg/injection, schedule: Q04DX002 (ip), vehicle: Klucel (hydroxypropylcellulose) (HPC)); 96 % of control (dose: 300.0 mg/kg/injection, schedule: Q04DX002 (ip), vehicle: Klucel (hydroxypropylcellulose) (HPC)).
Turning to `CCC(=O)c1cc2c(c3c1CCCC3)CCCC2`, the T/C (dose: 200.0 mg/kg/injection, schedule: Q01DX009 (ip), vehicle: other) was 90 % of control.
As for `O=C(Nc1nccs1)Nc1ccc(Cl)cc1Cl`, the T/C was 91 % of control under setting [10], 98 % of control under setting [3] and 109 % of control under setting [5].
Turning to `CC[Si](Cl)(CC)c1ccccc1`, the T/C by setting is: under setting [15], 93 % of control; (dose: 100.0 mg/kg/injection, schedule: Q01DX001 (sc), vehicle: olive oil, sesame oil, peanut oil) 107 % of control; under setting [16], 90 % of control; (dose: 200.0 mg/kg/injection, schedule: Q01DX001 (sc), vehicle: olive oil, sesame oil, peanut oil) 107 % of control; under setting [17], 195 % of control; (dose: 400.0 mg/kg/injection, schedule: Q01DX001 (sc), vehicle: olive oil, sesame oil, peanut oil) 102 % of control.
As for `CC1CCC(OC(C[N+](=O)[O-])C(Cl)(Cl)Cl)CC1` (stereo unspecified), the T/C was 93 % of control under setting [3]; 106 % of control under setting [4]; 91 % of control under setting [5]; 101 % of control under setting [6]; 90 % of control under setting [7]; 104 % of control under setting [8].
Consider `CCN1CCC(S(=O)(=O)CCS(=O)(=O)C2CCN(CC)C2)C1` (stereo unspecified), for which the T/C was 95 % of control under setting [11], 94 % of control under setting [12] and 94 % of control under setting [13].
`Nc1cccc(S(=O)(=O)c2cccc(N)c2)c1`: the T/C reads like this: (dose: 100.0 mg/kg/injection, schedule: Q01DX009 (ip), vehicle: Klucel (hydroxypropylcellulose) (HPC)) 100 % of control; under setting [9], 97 % of control; under setting [1], 94 % of control; (dose: 200.0 mg/kg/injection, schedule: Q04DX003 (ip), vehicle: Klucel (hydroxypropylcellulose) (HPC)) 94 % of control; under setting [2], 92 % of control; (dose: 400.0 mg/kg/injection, schedule: Q04DX003 (ip), vehicle: Klucel (hydroxypropylcellulose) (HPC)) 94 % of control.
As for `Nc1ncnc2c1c(C(=O)NO)cn2C1OC(CO)C(O)C1O` (stereo unspecified), the T/C by setting is: (dose: 6.25 mg/kg/injection, schedule: Q01DX009 (ip), vehicle: saline) 153 % of control; (dose: 12.5 mg/kg/injection, schedule: Q01DX009 (ip), vehicle: saline) 156 % of control and 171 % of control; (dose: 25.0 mg/kg/injection, schedule: Q01DX005 (ip), vehicle: saline) 108 % of control.
